ChEMBL document CHEMBL1130706, “Synthesis and structure-activity relationships of adenosine analogs as inhibitors of trypanosomal glyceraldehyde-3-phosphate dehydrogenase. Modifications at positions 5' and 8” (Bioorg Med Chem Lett, 1998)

What was measured:
Leishmania mexicana [1] = assay: Inhibition of Leishmania mexicana GAPDH(glyceraldehyde-3-phosphate dehydrogenase); set-up: concentration or dose not given beside the values; conditions: concentration not given here
[2] = test system: CC(C)=CCNc1ncnc2c1nc(-c1cccs1)n2C1O[C@H](CO)[C@@H](O)[C@H]1O
Description: Inhibition of human erythrocyte GAPDH(glyceraldehyde-3-phosphate dehydrogenase) expressed as KM value

Leishmania mexicana [3] = test system: Leishmania mexicana
Description: Inhibition of Leishmania mexicana GAPDH(glyceraldehyde-3-phosphate dehydrogenase) expressed as KM value

Glyceraldehyde-3-phosphate dehydrogenase (Homo sapiens), P04406, sequence (P04406 whole entry): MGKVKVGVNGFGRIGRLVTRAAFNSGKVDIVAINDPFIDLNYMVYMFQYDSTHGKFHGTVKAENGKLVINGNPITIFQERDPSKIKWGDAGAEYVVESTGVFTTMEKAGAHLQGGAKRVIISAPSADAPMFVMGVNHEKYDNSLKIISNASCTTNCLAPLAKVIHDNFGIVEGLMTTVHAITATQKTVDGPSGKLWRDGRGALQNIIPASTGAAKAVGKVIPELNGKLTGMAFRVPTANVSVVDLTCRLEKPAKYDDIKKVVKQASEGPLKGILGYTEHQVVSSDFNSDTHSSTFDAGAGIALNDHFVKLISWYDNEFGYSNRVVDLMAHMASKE

Compound	inhibition (Leishmania mexicana [1]) [%]	further results
CC(C)=CCNc1ncnc2c1ncn2[C@@H]1O[C@H](CO)[C@@H](O)[C@H]1O	84	
Nc1ncnc2c1nc(N1CCCC1)n2C1O[C@H](CO)[C@@H](O)[C@H]1O (some centres undefined)	100	
Glyceraldehyde-3-phosphate dehydrogenase (Homo sapiens), P04406		Km [2]: 40 µM
CC(C)=CCNc1ncnc2c1nc(-c1cccs1)n2C1O[C@H](CO)[C@@H](O)[C@H]1O (some centres undefined)		Km (Leishmania mexicana [3]): 400 µM
O=C(NC[C@H]1OC(n2cnc3c(NCc4ccccc4)ncnc32)[C@H](O)[C@@H]1O)c1cc(O)cc(O)c1 (some centres undefined)	100	
O=C(CC1CCCCC1)NC[C@H]1OC(n2cnc3c(NCc4ccccc4)ncnc32)[C@H](O)[C@@H]1O (some centres undefined)	77	
OC[C@H]1OC(n2c(-c3cccs3)nc3c(NCc4ccccc4)ncnc32)[C@H](O)[C@@H]1O (some centres undefined)	100	
Nc1ncnc2c1ncn2C1O[C@H](COC(=O)c2ccc3ccccc3c2)[C@@H](O)[C@H]1O (some centres undefined)	100	
NC(=O)CCC(=O)NC[C@H]1OC(n2cnc3c(NCc4ccccc4)ncnc32)[C@H](O)[C@@H]1O (some centres undefined)	74	
Nc1ncnc2c1ncn2[C@@H]1O[C@H](COC(=O)c2ccccc2)[C@@H](O)[C@H]1O	67	
Nc1ncnc2c1nc(NCc1ccccc1)n2[C@@H]1O[C@H](CO)[C@@H](O)[C@H]1O	100	
Cc1ccccc1CNc1ncnc2c1nc(-c1cccs1)n2C1O[C@H](CO)[C@@H](O)[C@H]1O (some centres undefined)	100	
O=C(O)CCCC(=O)NC[C@H]1OC(n2cnc3c(NCc4ccccc4)ncnc32)[C@H](O)[C@@H]1O (some centres undefined)	79	
COc1cccc(C(=O)N[C@@H]2[C@H](O)[C@@H](COC(=O)c3ccccc3C(=O)O)O[C@H]2n2cnc3c(NCc4ccccc4)ncnc32)c1	100	
CN(C)c1nc2c(N)ncnc2n1C1O[C@H](CO)[C@@H](O)[C@H]1O (some centres undefined)	75	
Nc1ncnc2c1ncn2C1O[C@H](COC(=O)CCC(=O)O)[C@@H](O)[C@H]1O (some centres undefined)	100	
Nc1ncnc2c1nc(N1CCCCC1)n2[C@@H]1O[C@H](CO)[C@@H](O)[C@H]1O	100	
O=C(Cc1ccccc1)NC[C@H]1OC(n2cnc3c(NCc4ccccc4)ncnc32)[C@H](O)[C@@H]1O (some centres undefined)	77	
Nc1ncnc2c1nc(NCCO)n2C1O[C@H](CO)[C@@H](O)[C@H]1O (some centres undefined)	80	
